Test results taken from US20230270804A1, “ANTI-HYPERCHOLESTEROLEMIA COMPOSITION AND A METHOD OF MANUFACTURING THE SAME” (NBI BIOSCIENCES PRIVATE LIMITED, priority 2020, published 2023).

Columns and labels:
Format in all cases: in vivo, Wistar strain albino rats
[1] = Therapeutic study: organ body weight after necropsy
Procedure: The prophylactic study which lasted 90 days used 6 rats per group. […] The 6 groups were as follows: • 1. Normal Control • 2. High Fat Diet (HFD) 1 ml 1/d+Normal Diet • 3. High Fat Diet (HFD)+Normal Diet+the composition of the present invention (OD) • 4, High Fat Diet (HFD)+Normal Diet+the composition of the present invention (BD) • 5. […] The body weights were recorded to the nearest gram (g) with proper tare to 0.0000 with the subject at steady state on the weighing machine. The same weighing machine was used for all the subjects. The machine was tested with a known set of weights for any error.

HMG CoA Reductase = target: T1, HMG CoA Reductase (Rattus norvegicus, UniProt P51639); assay: Prophylactic study: HMG CoA reductase activity in liver homogenate; conditions: HFD+normal diet, after sacrifice
T1 construct: The tissue homogenate was prepared by homogenizing 1 gm of tissue (liver) with 10 ml of saline arsenate solution; from tissue; host or cells: rat liver homogenate
T1 sequence (P51639 1-887): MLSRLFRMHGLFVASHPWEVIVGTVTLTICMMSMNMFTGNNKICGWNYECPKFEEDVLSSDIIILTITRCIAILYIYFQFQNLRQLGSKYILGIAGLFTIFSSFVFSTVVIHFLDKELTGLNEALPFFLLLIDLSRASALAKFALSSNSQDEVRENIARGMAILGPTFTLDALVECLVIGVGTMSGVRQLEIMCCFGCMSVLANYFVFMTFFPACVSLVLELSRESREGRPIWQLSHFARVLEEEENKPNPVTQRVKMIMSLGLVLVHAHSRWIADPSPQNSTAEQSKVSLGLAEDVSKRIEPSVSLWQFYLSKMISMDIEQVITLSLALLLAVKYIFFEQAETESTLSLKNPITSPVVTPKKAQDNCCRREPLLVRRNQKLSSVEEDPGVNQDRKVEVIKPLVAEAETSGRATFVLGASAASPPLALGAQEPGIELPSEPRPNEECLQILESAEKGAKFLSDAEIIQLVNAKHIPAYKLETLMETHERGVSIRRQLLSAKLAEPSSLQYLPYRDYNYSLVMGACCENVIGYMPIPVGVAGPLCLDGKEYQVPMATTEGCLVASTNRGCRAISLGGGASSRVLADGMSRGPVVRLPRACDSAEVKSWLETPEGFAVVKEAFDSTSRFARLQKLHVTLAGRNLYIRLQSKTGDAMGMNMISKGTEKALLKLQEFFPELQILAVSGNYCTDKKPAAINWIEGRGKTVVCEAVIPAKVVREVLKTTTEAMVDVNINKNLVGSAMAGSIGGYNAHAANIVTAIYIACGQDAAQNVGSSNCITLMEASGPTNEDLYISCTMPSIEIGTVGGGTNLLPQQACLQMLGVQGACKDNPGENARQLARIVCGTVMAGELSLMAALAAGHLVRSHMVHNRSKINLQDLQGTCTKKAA
Procedure: (§1) 1.5-2 ml blood sample was taken from retino-orbital chamber in vials for biochemical estimations at every 15 days. Investigations performed included detailed Total Cholesterol—TC (mg/dl), Triglyceride—TG (mg/dl), High Density Lipoprotein—HDL-C (mg/dl), Low Density Lipoprotein—LDL-C (mg/dl), Very Low-Density Lipoprotein—VLDL (mg/dl), WBC (10^3/u1), RBC (10^6/u1), Hb (g/dl), PCV (%), Reticulocyte (%), Platelet count 10^5/mm^3, Clotting time (Sec), Neutrophils, Lymphocyte, Monocyte and Eosinophil. The estimations were done with Ecoline kits from Erba Mannheim, ERBA diagnostics Mannheml, Germany using Semi Autoanalyzer RX50 of MicroLabs Instruments and COUNCELL21 of Tulip Diagnostics Pvt. Ltd. Lipid peroxidation (Plasma & Liver), HMG Co-Reductase, Creatine phosphokinase (CPK), Lactate dehydrogenase (LDH), SGOT and SGPT were estimated at the end of both the studies using the kits.
The tissue homogenate was prepared by homogenizing 1 gm of tissue (liver) with 10 ml of saline arsenate solution. Further equal volumes of the fresh 10% tissue homogenate and diluted perchloric acid were mixed and allowed to stand for 5 minute and centrifuge (2000 rpm, 10 minutes). […] The readings were taken after 10 minutes at 540 nm vs. a similarly treated saline/arsenate blank.

[2] = test system: Creatine phosphokinase (CPK), Lactate dehydrogenase (LDH), SGOT and SGPT; assay: Therapeutic study: CPK, LDH, SGOT, SGPT
Procedure: as §1

Which “Intestine (organ body weight after necropsy)” value ([1]; HFD Continued) does the source give for `CC(C)c1c(C(=O)Nc2ccccc2)c(-c2ccccc2)c(-c2ccc(F)cc2)n1CC[C@@H](O)C[C@@H](O)CC(=O)O` [Statin, Atorvastatin] here?
Its value is 2.00 ± 0.02.

What about the “Kidney (organ body weight after necropsy)” value ([1]; HFD Continued) of the same compound?
The value was 2.82 ± 0.06 g/100 g bd. wt.

What about the “Liver (organ body weight after necropsy)” value ([1]; HFD Continued) of the same compound?
Its value is 4.51 ± 0.12 g/100 g.

What about the “Lungs (organ body weight after necropsy)” value ([1]; HFD Continued) of the same compound?
The value was 0.65 ± 0.03 g/100 g bd. wt.

What about the “Pancrease (organ body weight after necropsy)” value ([1]; HFD Continued) of the same compound?
The value was 0.89 ± 0.05 g/100 g bd. wt.

What about the “Spleen (organ body weight after necropsy)” value ([1]; HFD Continued) of the same compound?
The value was 1.19 ± 0.02.

What about the “Intestine (organ body weight after necropsy)” value ([1]; HFD Discontinued) of the same compound?
Its value is 2.00 ± 0.02.

What about the “Kidney (organ body weight after necropsy)” value ([1]; HFD Discontinued) of the same compound?
The value was 2.84 ± 0.04 g/100 g bd. wt.

What about the “Liver (organ body weight after necropsy)” value ([1]; HFD Discontinued) of the same compound?
Its value is 4.37 ± 0.05 g/100 g.

And the “Lungs (organ body weight after necropsy)” value ([1]; HFD Discontinued)?
The value was 0.66 ± 0.03 g/100 g bd. wt.

And the “Pancrease (organ body weight after necropsy)” value ([1]; HFD Discontinued)?
The value was 0.91 ± 0.03 g/100 g bd. wt.

And the “Spleen (organ body weight after necropsy)” value ([1]; HFD Discontinued)?
Its value is 1.17 ± 0.03.

What about the “HMG Co Reductase” value (HMG CoA Reductase) of the same compound?
Its value is 163.92 ± 4.02 U/mg.

And the Creatine phosphokinase ([2]; HFD Continued)?
Its Creatine phosphokinase is 1.31 ± 0.08.

And the LDH ([2]; HFD Continued)?
The LDH was 288.32 ± 12.64 U/ml.

What about the SGOT ([2]; HFD Continued) of the same compound?
The SGOT was 63.76 ± 2.92 U/ml.

What about the SGPT ([2]; HFD Continued) of the same compound?
The SGPT was 53.82 ± 1.13 U/ml.

What about the LDH ([2]; HFD Discontinued) of the same compound?
Its LDH is 284.07 ± 5.61 U/ml.

And the SGOT ([2]; HFD Discontinued)?
The SGOT was 62.88 ± 3.43 U/ml.

What about the SGPT ([2]; HFD Discontinued) of the same compound?
Its SGPT is 64.69 ± 0.52 U/ml.

What about the CPK value increase ([2]; therapeutic study) of the same compound?
Its CPK value increase is 10%.

What about the SGOT reduction ([2]; therapeutic study) of the same compound?
The SGOT reduction was 16%.

What about the SGPT reduction ([2]; therapeutic study) of the same compound?
Its SGPT reduction is 5%.
